# In patent US12208093B2 (THE JOHNS HOPKINS UNIVERSITY, priority 2016, dated 2025):
# Entries after “also recorded” stand apart in the source; their conditions may differ. Counter-ions that a name gives are not always drawn.
# Tests used:
# MDM2-p53 = test: Co-immunoprecipitation of MDM2 and p53; MDM2 and p53 expression; assay type: cell-based, human; settings: contact-inhibited infected cells
# Description: (§1) SDS-polyacrylamide gel electrophoresis and immunoblot analysis. Cell lysates were quantified for protein content using bicinchoninic acid (BCA) protein assay kit (Pierce Chemical, Rockford, IL). Equivalent amount of proteins were used for Western blot analysis as described previously. Protein bands were visualized by chemiluminescence using Western Blotting Luminol Reagent (Santa Cruz Biotechnology, Santa Cruz, CA). The following antibodies were used for detection of HCMV proteins: mouse anti-IE1 and IE2, (MAb810); mouse anti-UL44 (Santa Cruz biotechnology Santa Cruz, CA); mouse monoclonal anti-pp65 (Vector laboratories, Burlingame, CA); mouse monoclonal anti-β-actin antibody (Millipore, Billerica, MA); rabbit polyclonal anti-RPS14 and mouse monoclonal anti-MDM2 (AbCam, Cambridge, UK), mouse monoclonal anti-p53 (Santa Cruz, CA); horseradish peroxidase (HRP)-conjugated goat anti-rabbit IgG (Cell Signaling); and HRP-conjugated sheep anti-mouse IgG, (GE Healthcare, Waukesha, WI). For detection of co-immunoprecipitated proteins, protein A-HRP conjugate (Cell Signaling Technologies, Beverly, MA) was used as secondary antibody to eliminate the interfering IgG bands.
# Co-immunoprecipitation (IP) and immunoblotting. Non-infected, infected or emetine-treated HFFs were treated with MG132 (10 μM) for 12 h. […] 1 mg of lysate was precleared with bead slurry for 30 min. The precleared lysates were incubated with anti-MDM2 (2 μg) antibody overnight. The antibody complexes were isolated using protein A/G beads (Santa Cruz), washed three times with 50% IP buffer. The immunoprecipitate—protein A/G beads were boiled in SDS sample buffer, and the supernatant was analyzed on SDS-PAGE gels after immunoblotting as described previously. […] Reverse IPs were performed by pulling down the precleared lysates with either anti-p53 antibody or anti-RPS14 antibody and detected with MDM2. […] In other experiments, transfected or treated HEK293 cell lysates were pulled-down with anti-IE2 antibody and detected with anti-MDM2 antibody and vice-versa for reverse IP.
# [1] = test system: pp28-luciferase HCMV Towne; test: microbe, parasite or virus in culture; assay type: cell-based, human cytomegalovirus (HCMV)
# Description: A GCV-resistant pp28-luciferase HCMV strain, with a C607Y mutation in UL97 was also used. The recombinant viruses express luciferase under the control of the late CMV gene promoter, pp28. […] The recombinant viruses provide a highly-sensitive and reproducible reporter system which correlates with the classic plaque reduction assay. […] Human herpes virus strains were: luciferase HSV1-KOS/Dlux/oriS and clinical isolates of HSV2.
# Cell culture, virus infection and anti-viral assays. […] Infection with HCMV or HSV was performed in HFFs, and infection with mouse CMV was performed in MEFs. For HCMV, cells were seeded in either a 96-well plate or 100 mm culture plates (Corning Costar, Sigma Aldrich) at 0.5 or 2 million cells/plate. Following 90 minute adsorption, media was removed and cells were washed with PBS. Media containing 4% FBS and compounds were added to each well. Infected treated HFFs were collected at 72 hpi and lysates were assayed for luciferase activity using a luciferase assay kit (Promega, Madison, WI) on GloMax®-Multi+Detection System (Promega). In second cycle assays, supernatants were collected from all conditions of the first cycle at 96 hpi and used for infection of fresh HFFs in 96-well-plates. […] For HSV1-KOS/Dlux/oriS, a luciferase assay was performed at 24 hpi. Plaque assays were performed with clinical isolates of HSV2 and HCMV Towne. […] Following virus adsorption (60 min and 90 min for HSV and HCMV, respectively), virus was aspirated, and DMEM containing 4% fetal bovine serum (FBS) with (for HSV) or without (for HCMV) 0.5% carboxymethyl-cellulose, were added with the compounds at indicated concentrations into triplicate wells. After incubation at 37° C. for 10 days (for HCMV) or 2 days (for HSV), the overlay was removed and plaques were counted after crystal violet staining.
# [2] = test system: HCMV proteins IE1/2, UL44 and pp65; test: Western blot of HCMV protein expression; assay type: cell-based, human cytomegalovirus (HCMV); settings: 72 hpi
# Description: as §1
# [3] = test system: HSV-1 (luciferase HSV1-KOS/Dlux/oriS); test: HSV-1 luciferase assay in HFFs; assay type: cell-based, herpes simplex virus 1; settings: nM concentrations
# Description: (§2) Cell culture, virus infection and anti-viral assays.
# [4] = test system: HCMV in RPS14 knockdown cells; assay type: cell-based, human cytomegalovirus (HCMV); settings: contact-inhibited RPS14 knockdown cells; luciferase first and second cycle, pp65 at 72 hpi; dihydrochloride hydrate
# protein synthesis = settings: at concentration that inhibit CMV replication in vitro; cited from earlier work
# [5] = test system: pp28-luciferase HCMV Towne; test: Second cycle luciferase assay; assay type: cell-based, human cytomegalovirus (HCMV); settings: emetine 75 nM, vs infected control
# Description: as §2
# p21 mRNA = test: qRT-PCR for p21 in infected HFFs; assay type: cell-based, human; settings: contact-inhibited cells, emetine 75 nM, p<0.01
# Description: RNA isolation and real time quantitative reverse transcriptase (qRT) PCR. Total RNA was isolated from cultured cells using RNeasy Mini kit (Qiagen, Georgetown, MD) according to manufacturer's instructions. RevertAid first strand cDNA synthesis kit (Fermentas life sciences, Cromwell Park, MD) was used to synthesize first strand cDNA from total RNA using oligo-dT primers. Negative reverse-transcriptase (−RT) reactions were included to ensure the specificity of qRT-PCR reactions. Synthesis of first strand cDNA from mRNA template was carried out at 42° C. for 1 h. Quantitative RT-PCR (qRT-PCR) was performed using specific primers for p21 (F: 5′ […] 3′ (SEQ ID NO:3); R: 5′ […] 3′) (SEQ ID NO:4) and SYBR green (Fermentas life science) with two-step cycling protocol (95° C. for 15 s, 60° C. for 1 min). Reactions were performed in triplicates and GAPDH (F: 5′ […] 3′ (SEQ ID NO:5); R: 5′ […] 3′ (SEQ ID NO:6)) was used as the internal control.
# [6] = test system: pp28-luciferase HCMV Towne; test: Drug combination emetine + GCV, Bliss model; assay type: cell-based, human cytomegalovirus (HCMV); settings: combined with ganciclovir (GCV), dihydrochloride hydrate
# Description: Drug combination. The combined inhibitory effect of compounds on HCMV replication was determined in infected HFFs. A dose response curve was first generated for each compound; the EC50 and slope were calculated. […] The Bliss model was used for quantification of the effect of two compounds on HCMV replication (40). In this model, drug combination represents the product of two probabilistically independent events as described in the following equation (41): […]
# The combined effect of two inhibitors (FU, fractional unaffected) is computed as the product of individual effects of the two inhibitors, FU1 and FU2. If the ratio of observed fold inhibition divided by the expected fold inhibition is greater than 1, the compounds are synergistic. If the ratio is less than 1, the combination is considered antagonistic, and if it equals to 1 the combination is additive.
# HCMV entry = test: Virus entry immunofluorescence assay for pp65; assay type: cell-based; settings: emetine 75 nM, GCV 10 μM, CpG 2006 10 μM; added 24 h prior to infection; dihydrochloride hydrate
# Description: Immunofluorescence. […] Compounds were diluted in serum-free medium and added to HFFs seeded on chamber slides 24 h prior to infection. After infection and treatment, cells were fixed, permeabilized, and air-dried. Cells were then incubated with mouse monoclonal anti-pp65 antibody at 37° C. in humidified chambers for 1 h, washed three times with 0.1% Tween 20 in PBS (PBST), incubated with rhodamine conjugated anti-mouse IgG (Sigma Chemical Co) at 37° C. in humidified chambers for 1 h, and washed with PBST (0.1% Tween 20). A drop of mount oil containing DAPI (4,6-diamidino-2-phenylindole) (Santa Cruz) was added to the slides before visualization with a Nikon Eclipse E-800 fluorescence microscope.
# [7] = Cell viability (MTT) assay; settings: human, non-infected HFFs
compound,measurement,setting,value
"CC[C@H]1CN2CCc3cc(OC)c(OC)cc3[C@@H]2C[C@@H]1C[C@H]1NCCc2cc(OC)c(OC)cc21 [emetine, emetine dihydrochloride hydrate]",MDM2 expression,MDM2-p53; 72 hpi,increased
same,p53 expression,MDM2-p53; 72 hpi,increased
same,HCMV-induced interaction between MDM2 and p53,"MDM2-p53; not cycling cells, MG132",disrupted
same,HCMV inhibition in relation to cell density at time of infection,"[1]; HFFs 0.5-2 million cells/plate, emetine 75 nM, GCV 5 μM",significant virus inhibition was observed only at higher cell density
same,EC50,"[1]; Human betaherpesvirus 5, read-out: EC50 against HCMV",0.04 µM
same,reduction in normalized luciferase activity at low cell density,"[1]; emetine 75 nM, 0.5 million cells/plate in 96-well plate",no significant reduction
same,concentration that fully inhibits HCMV,[1]; luciferase at 72 hpi,75 nM
same,"expression of HCMV proteins IE1/2, UL44 and pp65",[2],significantly reduced
same,viral UL44 and pp65 expression at high cell density,"[2]; emetine 75 nM, vs infected untreated cells, not at lower cell density",significant reduction
same,inhibition of HSV-1,[3],inhibited
same,HCMV inhibition in RPS14 knockdown cells,[4],unable to inhibit HCMV; also recorded: loss of HCMV inhibition
same,inhibition of protein synthesis,protein synthesis,no inhibition of protein synthesis
same,"increase in pp28-luciferase activity, second cycle infection","[5]; 0.5 million cells/plate, p>0.5",1.5 fold
same,"reduction in pp28-luciferase activity, second cycle infection","[5]; 1 million cells/plate, p<0.001",1.5 fold
same,"pp28-luciferase activity, second cycle infection","[5]; 2 million cells/plate, p<0.001",almost complete inhibition
same,increase in p21 mRNA,p21 mRNA; 24 hpi,5.4 fold
same,increase in p21 mRNA,p21 mRNA; 72 hpi,6.7 fold
same,combined effect of emetine and GCV on virus inhibition,[6],synergistic virus inhibition
same,inhibition of viral entry,HCMV entry,neither emetine nor GCV inhibited viral entry; also recorded: does not inhibit
same,CC50 at 72 h,[7],8 µM
same,tolerability in mice,,well-tolerated
